We go through nine compounds from patent publication US20220402950A1, “SUBSTITUTED BENZIMIDAZOLES AS PAD4 INHIBITORS” (BRISTOL-MYERS SQUIBB COMPANY, priority 2018, published 2022).

Structures are written as SMILES.

Chain of human PAD4 (hPAD4) (Q9UM07 whole entry): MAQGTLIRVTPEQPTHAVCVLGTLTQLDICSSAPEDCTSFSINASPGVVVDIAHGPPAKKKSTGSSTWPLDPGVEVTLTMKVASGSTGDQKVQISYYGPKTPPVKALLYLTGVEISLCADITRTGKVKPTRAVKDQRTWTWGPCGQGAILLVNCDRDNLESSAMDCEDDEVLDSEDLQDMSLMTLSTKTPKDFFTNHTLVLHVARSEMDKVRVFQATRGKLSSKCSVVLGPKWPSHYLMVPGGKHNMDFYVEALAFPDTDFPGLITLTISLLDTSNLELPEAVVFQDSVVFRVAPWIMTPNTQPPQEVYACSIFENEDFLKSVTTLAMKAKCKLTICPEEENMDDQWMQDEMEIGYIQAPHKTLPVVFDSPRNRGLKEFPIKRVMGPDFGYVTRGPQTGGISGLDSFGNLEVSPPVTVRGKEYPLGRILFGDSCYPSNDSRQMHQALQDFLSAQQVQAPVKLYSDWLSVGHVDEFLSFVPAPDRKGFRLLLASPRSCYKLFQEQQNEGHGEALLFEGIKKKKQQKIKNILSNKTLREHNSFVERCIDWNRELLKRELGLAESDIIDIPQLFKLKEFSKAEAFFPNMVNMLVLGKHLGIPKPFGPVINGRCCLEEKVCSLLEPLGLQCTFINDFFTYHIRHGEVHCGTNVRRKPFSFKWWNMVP

One experiment concerns the target human PAD4 (hPAD4) (Homo sapiens, UniProt Q9UM07). Description: RFMS Human PAD4 Functional Assay. Format: biochemical. Particulars: hPAD4 RFMS IC50, human PAD4, rapid-fire mass spectrum (RFMS) assay; 5 nM hPAD4, 250 μM BAEE. A digest of the protocol: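 RapidFire ESI-MS quantification, normalised to a modified-citrulline internal standard, after phenyl glyoxal (final 4 mM) derivatisation of the TCA-quenched reaction. The enzyme (10 nM) sat 30 min with compound (up to 50 μM final) before 500 μM BAEE (as added) started a 90 min, 37 °C reaction. Buffer: HEPES pH 7.5, 50 μM calcium, 5 μM TPEN.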
`CCOC(=O)c1ccccc1-c1cccc2cc(-c3nc4cc(C(=O)N5C[C@H]6CC[C@@H]5[C@@H]6N)cc(OC)c4n3C)n(CC3CC3)c12` [Example 123, ethyl 2-(2-(5-((1R,4R,7R)-7-amino-2-azabicyclo[2.2.1]heptane-2-carbonyl)-7-methoxy-1-methyl-1H-benzo[d]imidazol-2-yl)-1-(cyclopropylmethyl)-1H-indol-7-yl)benzoate] yielded an IC50 of 84 nM. `COc1cc(C(=O)N2C[C@H]3CC[C@@H]2[C@@H]3N)cc2nc(-c3cc4cccc(-c5ccc(C(N)=O)cc5)c4n3CC3CC3)n(C)c12` [Example 124, 4-(2-(5-((1R,4R,7R)-7-amino-2-azabicyclo[2.2.1]heptane-2-carbonyl)-7-methoxy-1-methyl-1H-benzo[d]imidazol-2-yl)-1-(cyclopropylmethyl)-1H-indol-7-yl)benzamide] had an IC50 of 25 nM. Regarding `COc1cc(C(=O)N2C[C@H]3CC[C@@H]2[C@@H]3N)cc2nc(-c3cc4cccc(-c5ccc(C(=O)N(C)C)cc5)c4n3CC3CC3)n(C)c12` [Example 125, 4-(2-(5-((1R,4R,7R)-7-amino-2-azabicyclo[2.2.1]heptane-2-carbonyl)-7-methoxy-1-methyl-1H-benzo[d]imidazol-2-yl)-1-(cyclopropylmethyl)-1H-indol-7-yl)-N,N-dimethylbenzamide], the IC50 is 125 nM. Same read-out and setting: the same measure for `COc1cc(C(=O)N2CC3CCC2[C@@H]3N)cc2nc(-c3cc4cccc(-c5ccc6ccn(C)c6c5)c4n3CC3CC3)n(C)c12` (stereo partly drawn) [Example 126, ((7R)-7-amino-2-azabicyclo[2.2.1]heptan-2-yl)(2-(1′-(cyclopropylmethyl)-1-methyl-1H,1′H-[6,7′-biindol]-2′-yl)-7-methoxy-1-methyl-1H-benzo[d]imidazol-5-yl)methanone]: 110 nM.

Staying with this experiment, now noted: human PAD4, rapid-fire mass spectrum (RFMS) assay; 5 nM hPAD4, 250 μM BAEE; read-out: hPAD4 RFMS IC50.
In the case of `COc1cc(C(=O)N2C[C@H]3CC[C@@H]2[C@@H]3N)cc2nc(-c3cc4cccc(-n5cc(C6CNC6)nn5)c4n3CC3CC3)n(C)c12` [Example 110, (1R,4R,7R)-2-(2-{7-[4-(azetidin-3-yl)-1H-1,2,3-triazol-1-yl]-1-(cyclopropylmethyl)-1H-indol-2-yl}-7-methoxy-1-methyl-1H-1,3-benzodiazole-5-carbonyl)-2-azabicyclo[2.2.1]heptan-7-amine], the IC50 was determined as 137 nM. Regarding `COc1cc(C(=O)N2C[C@H]3CC[C@@H]2[C@@H]3N)cc2nc(-c3cc4cccc(-c5ccc(O)c(CO)c5)c4n3CC3CC3)n(C)c12` [Example 119, ((1R,4R,7R)-7-amino-2-azabicyclo[2.2.1]heptan-2-yl)(2-(1-(cyclopropylmethyl)-7-(4-hydroxy-3-(hydroxymethyl)phenyl)-1H-indol-2-yl)-7-methoxy-1-methyl-1H-benzo[d]imidazol-5-yl)methanone], the IC50 stood at 20 nM. `COc1cc(C(=O)N2C[C@H]3CC[C@@H]2[C@@H]3N)cc2nc(-c3cc4cccc(-c5ccc(O)c(C(N)=O)c5)c4n3CC3CC3)n(C)c12` [Example 120, 5-(2-(5-((1R,4R,7R)-7-amino-2-azabicyclo[2.2.1]heptane-2-carbonyl)-7-methoxy-1-methyl-1H-benzo[d]imidazol-2-yl)-1-(cyclopropylmethyl)-1H-indol-7-yl)-2-hydroxybenzamide]: the IC50 stood at 65 nM.

As to `COc1cc(C(=O)N2C[C@H]3CC[C@@H]2[C@@H]3N)cc2nc(-c3cc4cccc(-c5ccc(O)c(C(=O)O)c5)c4n3CC3CC3)n(C)c12` [Example 121, 5-(2-(5-((1R,4R,7R)-7-amino-2-azabicyclo[2.2.1]heptane-2-carbonyl)-7-methoxy-1-methyl-1H-benzo[d]imidazol-2-yl)-1-(cyclopropylmethyl)-1H-indol-7-yl)-2-hydroxybenzoic Acid], the IC50 was 753 nM. Take `COc1cc(C(=O)N2C[C@H]3CC[C@@H]2[C@@H]3N)cc2nc(-c3cc4cccc(-c5cnn(C)c5)c4n3CC3CC3)n(C)c12` [Example 122, ((1R,4R,7R)-7-amino-2-azabicyclo[2.2.1]heptan-2-yl)(2-(1-(cyclopropylmethyl)-7-(1-methyl-1H-pyrazol-4-yl)-1H-indol-2-yl)-7-methoxy-1-methyl-1H-benzo[d]imidazol-5-yl)methanone]: the IC50 stood at 57 nM.

For orientation: IC50 means the concentration at which inhibition is half-maximal.
